# What was measured:
# Format in all cases: functional, cell-based
# CAKI-2 = experiment: Antiproliferative activity against human CAKI-2 cells assessed as inhibition of cell growth incubated for 24 hrs by SRB assay; conditions: CAKI-2, 24 h
# [1] = Antiproliferative activity against human StMl1 1a cells assessed as inhibition of cell growth incubated for 24 hrs by SRB assay
# LS174T = experiment: Antiproliferative activity against human LS174T cells assessed as inhibition of cell growth incubated for 24 hrs by SRB assay
# MCF7 [2] = experiment: Antiproliferative activity against human MCF7 cells assessed as inhibition of cell growth incubated for 24 hrs by SRB assay; conditions: MCF7, 24 h
# HepG2 [3] = experiment: Antiproliferative activity against human HepG2 cells assessed as inhibition of cell growth incubated for 48 hrs by MTS assay; conditions: HepG2, 48 h
# HeLa = experiment: Antiproliferative activity against human HeLa cells assessed as inhibition of cell growth incubated for 48 hrs by MTS assay
# A549 [4] = experiment: Antiproliferative activity against human A549 cells assessed as inhibition of cell growth incubated for 48 hrs by MTS assay; conditions: A549, 48 h
# SMMC-7721 [5] = experiment: Antiproliferative activity against human SMMC-7721 cells assessed as inhibition of cell growth incubated for 48 hrs by MTS assay; conditions: SMMC-7721, 48 h
# Jurkat = experiment: Antiproliferative activity against human Jurkat cells assessed as inhibition of cell growth
# KB [6] = experiment: Antiproliferative activity against drug-sensitive human KB cells assessed as inhibition of cell growth
# [7] = Antiproliferative activity against vincristine-resistant human KB cells assessed as inhibition of cell growth
# SW480 = experiment: Antiproliferative activity against human SW480 cells assessed as inhibition of cell growth
# SMMC-7721 [8] = experiment: Antiproliferative activity against human SMMC-7721 cells assessed as inhibition of cell growth
# A549 [9] = experiment: Antiproliferative activity against human A549 cells assessed as inhibition of cell growth
# MCF7 [10] = experiment: Antiproliferative activity against human MCF7 cells assessed as inhibition of cell growth
# HL-60 = experiment: Antiproliferative activity against human HL-60 cells assessed as inhibition of cell growth
# ASPC1 = experiment: Antiproliferative activity against human ASPC1 cells assessed as inhibition of cell growth incubated for 72 hrs by MTT assay; conditions: ASPC1, 72 h
# PANC-1 [11] = experiment: Antiproliferative activity against human PANC-1 cells assessed as inhibition of cell growth incubated for 72 hrs by MTT assay; conditions: PANC-1, 72 h
# BXPC-3 = experiment: Antiproliferative activity against human BXPC-3 cells assessed as inhibition of cell growth incubated for 72 hrs by MTT assay; conditions: BXPC-3, 72 h
# MIA PaCa-2 = experiment: Antiproliferative activity against human MIA PaCa-2 cells assessed as inhibition of cell growth incubated for 72 hrs by MTT assay; conditions: MIA PaCa-2, 72 h
# PANC-1 [12] = experiment: Antiproliferative activity against human PANC-1 cells assessed as inhibition of cell growth incubated for 24 hrs by FMCA assay; conditions: PANC-1, 24 h
# HCT-116 [13] = experiment: Antiproliferative activity against human HCT-116 cells assessed as inhibition of cell growth
# HepG2 [14] = experiment: Antiproliferative activity against human HepG2 cells assessed as inhibition of cell growth incubated for 24 hrs by colorimetric method; conditions: HepG2, 24 h
# PC-3 = experiment: Antiproliferative activity against human PC-3 cells assessed as inhibition of cell growth
# HT-29 = experiment: Antiproliferative activity against human HT-29 cells assessed as inhibition of cell growth
# MDA-MB-231 = experiment: Antiproliferative activity against human MDA-MB-231 cells assessed as inhibition of cell growth
# KB [15] = experiment: Antiproliferative activity against vincristine-sensitive human KB cells assessed as inhibition of cell growth
# HepG2 [16] = experiment: Antiproliferative activity against human HepG2 cells assessed as inhibition of cell growth by MTT assay
# NCI-H460 = experiment: Antiproliferative activity against human NCI-H460 cells assessed as inhibition of cell growth by MTT assay
# HCT-116 [17] = experiment: Antiproliferative activity against human HCT-116 cells assessed as inhibition of cell growth incubated for 24 hrs by MTT assay; conditions: HCT-116, 24 h
# P388 = experiment: Antiproliferative activity against mouse P388 cells assessed as inhibition of cell growth
structure (smiles),measurement,setting,value
C/C=C1/CN2CC[C@@H]3c4ccccc4N4[C@H](C(=O)OC)[C@H]1C[C@H]2[C@]34/C=C/C1=COC[C@@H]2[C@H]1C[C@H]1c3c(c4ccccc4n3C)C[C@@H]2N1C,IC50,CAKI-2,2000 nM
same,IC50,[1],2000 nM
same,IC50,LS174T,2000 nM
same,IC50,MCF7 [2],2000 nM
CC[C@]12CCCn3c(Cc4cc5c6n4CCC[C@]6(CC)CCC(=O)Nc4ccccc4-5)cc(c31)-c1ccccc1NC(=O)CC2,IC50,HepG2 [3],7020 nM
same,IC50,HeLa,4400 nM
same,IC50,A549 [4],16200 nM
same,IC50,SMMC-7721 [5],4310 nM
C/C=C1/CN2CC[C@]34c5ccccc5N5[C@H](C(=O)OC)[C@H]1C[C@H]2[C@@]53Oc1c4cc2c(c1O)C(=O)O[C@@]13[C@@H]4C[C@H]5/C(=C\C)CN4CC[C@@]21c1ccccc1N3[C@@H]5C(=O)OC,IC50,Jurkat,3.7 µg/mL
same,IC50,KB [6],3.2 µg/mL
same,IC50,[7],2 µg/mL
C/C=C1\CN(C)[C@H]2Cc3c([nH]c4ccccc34)[C@H](c3c(O)ccc4c5c([nH]c34)[C@]3(C(=O)OC)C[C@@H]4C[C@H](CC)[C@@H]3N(CC5)C4)C[C@H]1[C@]2(CO)C(=O)OC,IC50,SW480,170 nM
same,IC50,SMMC-7721 [8],170 nM
same,IC50,A549 [9],170 nM
same,IC50,MCF7 [10],170 nM
same,IC50,HL-60,170 nM
N=C(N)NCCSc1nc(-c2c[nH]c3cc(Br)ccc23)cnc1-c1c[nH]c2cc(Br)ccc12,IC50,ASPC1,27000 nM
same,IC50,PANC-1 [11],18000 nM
same,IC50,BXPC-3,14000 nM
same,IC50,MIA PaCa-2,26000 nM
O=C1NCc2c1c1c3ccc(O)cc3[nH]c1c1[nH]c3ccccc3c21,IC50,PANC-1 [12],68000 nM
C=C1[C@H]2C[C@@H]3N(CC[C@@]34c3cccc5c3N(C[C@H]3[C@H]6C[C@@H]7N(CC[C@@]78c7ccccc7N[C@@]538)C[C@H]6CC)[C@@H]14)C[C@H]2CC,IC50,HCT-116 [13],3800 nM
same,IC50,A549 [9],3800 nM
same,IC50,MCF7 [10],3800 nM
same,IC50,HL-60,3800 nM
COC(=O)/C1=C/c2c([nH]c3ccccc23)/C(C(=O)OC)=C\c2c1[nH]c1ccccc21 [CAULERPIN],IC50,HepG2 [14],24.6 µg/mL
C/C=C1/CN2CC[C@]34C(=C(CN5c6ccccc6[C@@]67CCN8CCC[C@]9(CC[C@]56[C@H](C(=O)OC)C9)[C@H]87)[C@H]1C[C@H]23)Nc1ccccc14,IC50,PC-3,1300 nM
same,IC50,HT-29,1300 nM
same,IC50,MDA-MB-231,1300 nM
same,IC50,KB [15],1300 nM
same,IC50,HCT-116 [13],1300 nM
same,IC50,[7],1300 nM
same,IC50,A549 [9],1300 nM
same,IC50,MCF7 [10],1300 nM
COC(=O)c1[nH]cc2c1[C@]1(CNc3ccc(Cl)cc31)c1[nH]c3ccc(Cl)cc3c1-2,IC50,HepG2 [16],6 µg/mL
same,IC50,NCI-H460,15 µg/mL
O=C1C[C@@H]2c3ccc(O)c(O)c3[C@@]3(Nc4ccccc4C3=O)[C@@]23C(=O)c2ccccc2N13,IC50,HCT-116 [17],78000 nM
COc1cc2c(cc1CC(C(C)=O)[C@@H]1C[C@H]3c4c(c5ccccc5n4C)C[C@@H]([C@@H]1CO)N3C)c1c(n2C)[C@@H]2C[C@H]3C(C(C)=O)=COC[C@H]3[C@H](C1)N2C (stereo partly drawn),IC50,P388,12.3 µg/mL

# Source: ChEMBL document CHEMBL5331060, “Bisindole natural products: A vital source for the development of new anticancer drugs” (Eur J Med Chem, 2022)
